Measured values taken from PubChem BioAssay AID330 (DTP/NCI, 2004).
Several values for one entry are separate records, joined by “and”; a condition that tells them apart may be missing. Equal entries are not always repeated. Toxic doses and inconclusive results are not listed.

System: P388 leukemia ip, CD2F1 mice, survival T/C
Experiment: NCI In Vivo Anticancer Drug Screen. Data for tumor model P388 Leukemia (intraperitoneal) in CD2F1 (CDF1) mice
Conditions: endpoint: median survival time, higher = longer survival
Method in brief: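 Mice carrying the transplanted tumor received test compound or vehicle. Survival was recorded in each group, and the value is the treated-group measurement divided by that of the vehicle-treated control group.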

## BrCc1cn2ccccc2n1
dose: 25.0 mg/kg/injection, schedule: Q01DX009 (ip), vehicle: saline
  T/C: 92 % of control
dose: 50.0 mg/kg/injection, schedule: Q01DX009 (ip), vehicle: saline
  T/C: 100 % of control
dose: 100.0 mg/kg/injection, schedule: Q01DX009 (ip), vehicle: saline
  T/C: 104 % of control

## COc1cccc2c1C(=O)c1c(O)c3c(c(O)c1C2=O)CC(O)(C(C)=O)CC3OC1CC(NC(=O)C(CCCCN)NC(=O)C2CCCN2)C(O)C(C)O1 (configuration not stated)
dose: 2.5 mg/kg/injection, schedule: Q04DX003 (ip), vehicle: water
  T/C: 93 % of control
dose: 5.0 mg/kg/injection, schedule: Q04DX003 (ip), vehicle: water
  T/C: 98 % of control
dose: 10.0 mg/kg/injection, schedule: Q04DX003 (ip), vehicle: water
  T/C: 99 % of control and 109 % of control
dose: 20.0 mg/kg/injection, schedule: Q04DX003 (ip), vehicle: water
  T/C: 110 % of control and 118 % of control
dose: 40.0 mg/kg/injection, schedule: Q04DX003 (ip), vehicle: water
  T/C: 121 % of control and 123 % of control
dose: 80.0 mg/kg/injection, schedule: Q04DX003 (ip), vehicle: water
  T/C: 166 % of control

## O=C1C(Cl)=C(Cl)C(Cl)(Cl)C(Cl)=C1Cl
dose: 25.0 mg/kg/injection, schedule: Q01DX001 (ip), vehicle: Klucel (hydroxypropylcellulose) (HPC)
  T/C: 99 % of control
dose: 50.0 mg/kg/injection, schedule: Q01DX001 (ip), vehicle: Klucel (hydroxypropylcellulose) (HPC)
  T/C: 93 % of control
dose: 100.0 mg/kg/injection, schedule: Q01DX001 (ip), vehicle: Klucel (hydroxypropylcellulose) (HPC)
  T/C: 93 % of control

## COc1cccc2c1C(=O)c1c(O)c3c(c(O)c1C2=O)C[C@@](O)(/C(C)=N/NC(=O)c1ccc(Cl)c(Cl)c1)C[C@@H]3OC1CC(N)C(O)C(C)O1 (some centres not stated)
dose: 0.12 mg/kg/injection, schedule: Q01DX009 (ip), vehicle: water
  T/C: 117 % of control
dose: 0.5 mg/kg/injection, schedule: Q01DX009 (ip), vehicle: water
  T/C: 157 % of control
dose: 1.0 mg/kg/injection, schedule: Q01DX009 (ip), vehicle: water
  T/C: 166 % of control
dose: 2.0 mg/kg/injection, schedule: Q01DX009 (ip), vehicle: water
  T/C: 155 % of control and 175 % of control
dose: 4.0 mg/kg/injection, schedule: Q01DX009 (ip), vehicle: water
  T/C: 163 % of control
dose: 5.0 mg/kg/injection, schedule: Q01DX001 (ip), vehicle: water
  T/C: 159 % of control
dose: 10.0 mg/kg/injection, schedule: Q01DX001 (ip), vehicle: water
  T/C: 168 % of control
dose: 20.0 mg/kg/injection, schedule: Q01DX001 (ip), vehicle: water
  T/C: 123 % of control

## Nc1ncnc2c1ncn2C[c-]1[c-][c-][c-][c-]1.[Fe].[c-]1[c-][c-][cH-][c-]1
dose: 50.0 mg/kg/injection, schedule: Q01DX005 (ip), vehicle: Klucel (hydroxypropylcellulose) (HPC)
  T/C: 94 % of control
dose: 100.0 mg/kg/injection, schedule: Q01DX005 (ip), vehicle: Klucel (hydroxypropylcellulose) (HPC)
  T/C: 94 % of control
dose: 200.0 mg/kg/injection, schedule: Q01DX005 (ip), vehicle: Klucel (hydroxypropylcellulose) (HPC)
  T/C: 100 % of control

## CONCc1ccc(C(=O)NC(C)C)cc1
dose: 25.0 mg/kg/injection, schedule: Q01DX009 (ip), vehicle: distilled water + Tween-80
  T/C: 105 % of control
dose: 50.0 mg/kg/injection, schedule: Q01DX009 (ip), vehicle: distilled water + Tween-80
  T/C: 106 % of control
dose: 100.0 mg/kg/injection, schedule: Q01DX009 (ip), vehicle: distilled water + Tween-80
  T/C: 90 % of control
dose: 200.0 mg/kg/injection, schedule: Q01DX009 (ip), vehicle: distilled water + Tween-80
  T/C: 90 % of control

## CCCCCCCCCCCC(O)CCCC(O)CC(O)CC(O)CC1CC=CC(=O)O1 (configuration not stated)
dose: 12.5 mg/kg/injection, schedule: Q01DX009 (ip), vehicle: Klucel (hydroxypropylcellulose) (HPC)
  T/C: 106 % of control
dose: 25.0 mg/kg/injection, schedule: Q01DX009 (ip), vehicle: Klucel (hydroxypropylcellulose) (HPC)
  T/C: 103 % of control
dose: 50.0 mg/kg/injection, schedule: Q01DX009 (ip), vehicle: Klucel (hydroxypropylcellulose) (HPC)
  T/C: 112 % of control

## O=C1C(=O)c2ccccc2C(O)=C1CCCc1ccc(C2CCCCC2)cc1
dose: 3.12 mg/kg/injection, schedule: Q01DX009 (ip), vehicle: saline with Tween-80
  T/C: 112 % of control
dose: 6.25 mg/kg/injection, schedule: Q01DX009 (ip), vehicle: saline with Tween-80
  T/C: 101 % of control
dose: 12.5 mg/kg/injection, schedule: Q01DX009 (ip), vehicle: saline with Tween-80
  T/C: 94 % of control
dose: 25.0 mg/kg/injection, schedule: Q01DX009 (ip), vehicle: saline with Tween-80
  T/C: 101 % of control
dose: 50.0 mg/kg/injection, schedule: Q01DX009 (ip), vehicle: saline with Tween-80
  T/C: 94 % of control
dose: 100.0 mg/kg/injection, schedule: Q01DX009 (ip), vehicle: saline with Tween-80
  T/C: 93 % of control
dose: 200.0 mg/kg/injection, schedule: Q01DX009 (ip), vehicle: saline with Tween-80
  T/C: 104 % of control
